Reference: patent publication US10604514B2, “6-(5-membered heteroaryl)isoquinolin-3-yl carboxamides and preparation and use thereof” (Samumed, LLC, priority 2017, dated 2020)
Read-outs that look alike come from different tables or passages of the source.

Tests used:
[1] = tested on: LL29 cells (primary human fibroblasts derived from IPF patients), α-smooth muscle actin; assay: Inhibition of fibrotic process: αSMA in TGF-β1-treated primary human fibroblasts from IPF patients (LL29 cells); assay type: cell-based; conditions: for EC50: % αSMA-positive LL29 cells, TGF-β1 20 ng/mL, 4 days; for inhibition at 10 µM: read-out: percent inhibition at 10 μM
Method in brief: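 Read-out is the percentage of αSMA-positive cells by high-content imaging, excluding SYTOX green-positive dead/apoptotic cells, normalized to TGF-β1-only wells on the same plate. LL29 cells were exposed for 4 days at 37 °C to 20 ng/mL TGF-β1 plus 11-point, 2-fold compound dilutions in 0.1% DMSO.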

[2] = tested on: Wnt activity (Sp5-Luc reporter in SW480 colon carcinoma cells); assay: Wnt activity screening assay (Sp5-Luc reporter gene assay); assay type: cell-based, human; conditions: for EC50: Sp5-Luc reporter, SW480 cells, 36 to 48 hours; for inhibition at 10 µM: SW480, read-out: percent inhibition at 10 μM
Method in brief: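 Compounds at 10 points (1:3 steps, top 10 μM, 0.1% DMSO final) were incubated 36 to 48 h at 37° C with stable Sp5-Luc SW480 reporter cells in 1% FBS medium. Luciferase luminescence was then read and expressed relative to DMSO-only cells. Four-parameter variable-slope fitting yielded EC50 values.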

GSK3β kinase = GSK3β kinase (Homo sapiens (Human), UniProt P49841); assay: GSK3β kinase assay (Ser/Thr 09 peptide Z-lyte, FRET); assay type: biochemical; conditions: method text calls the value IC50;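 also: Coumarin/fluorescein emission ratio converted to percent phosphorylation against unphosphorylated (0%) and phosphorylated (100%) controls, 1 h compound incubation at room temperature, 11-point threefold dilutions from 10 µM, run in duplicate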
Chain of GSK3β kinase (P49841 whole entry): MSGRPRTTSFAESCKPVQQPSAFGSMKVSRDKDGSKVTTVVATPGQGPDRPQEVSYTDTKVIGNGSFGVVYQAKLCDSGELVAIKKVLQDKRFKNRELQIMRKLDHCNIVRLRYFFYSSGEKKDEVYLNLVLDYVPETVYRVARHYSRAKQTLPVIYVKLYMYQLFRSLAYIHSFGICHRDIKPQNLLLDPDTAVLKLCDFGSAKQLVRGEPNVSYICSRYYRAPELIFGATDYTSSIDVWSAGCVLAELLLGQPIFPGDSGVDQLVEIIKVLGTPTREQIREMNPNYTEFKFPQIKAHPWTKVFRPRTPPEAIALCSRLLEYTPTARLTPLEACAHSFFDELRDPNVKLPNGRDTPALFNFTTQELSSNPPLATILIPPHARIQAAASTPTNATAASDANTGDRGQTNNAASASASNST

[3] = tested on: SW480 colon carcinoma cells; assay: Cell viability assay (CellTiter-Glo) in SW480 cells; assay type: cell-based, human; conditions: for EC50: cell viability, SW480 cells, four days, CellTiter-Glo; for inhibition at 10 µM: SW480, read-out: percent inhibition at 10 μM;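 as to all read-outs here: SW480 cells stably carrying an Sp5-luciferase TCF/LEF reporter, luminescent ATP signal as viability measure, DMSO-treated cells as control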
Protocol: Representative compounds were screened using the assay procedure to assess the effect on cell viability as described below.
SW480 colon carcinoma cells were transduced with a lentiviral vector expressing luciferase with a human Sp5 promoter consisting of a sequence of eight TCF/LEF binding sites. SW480 cells stably expressing the Sp5-Luc reporter gene and a hygromycin resistance gene were selected by treatment with 150 μg/mL of hygromycin for 7 days. These stably transduced SW480 cells were expanded in cell culture and used for all further screening activities. Each compound was dissolved in DMSO as a 10 mM stock and used to prepare compound source plates.
For the Cell Viability Assays, the cells were plated at 2,000 cells/well in 384-well plates with a DMEM medium containing 1% fetal bovine serum, and 1% Penicillin-Streptomycin and incubated for four days hours at 37° C. and 5% CO2. Eight replicates of DMSO-treated cells served as controls and cells treated with compound were performed in duplicate.
After incubation, 10 μL of CellTiter-Glo (Promega) was added to each well allowed to incubate for approximately 12 minutes.
Dose-response curves were generated and EC50 concentration values were calculated using non-linear regression curve fit in the GraphPad Prism (San Diego, Calif.) or Dotmatics' Studies Software (Bishops Stortford, UK).

DYRK1A kinase = DYRK1A kinase (Homo sapiens (Human), UniProt Q13627); assay: DYRK1A kinase assay (Ser/Thr 18 peptide Z-lyte, FRET); conditions: DYRK1A kinase; method text calls the value IC50
IL-6 = IL-6 inhibition in LPS-stimulated human peripheral blood mononuclear cells (HTRF); assay type: cell-based; conditions: for EC50: IL-6, LPS-stimulated huPBMCs, HTRF; for inhibition at 10 µM: read-out: percent value in parentheses below EC50 >10
Method in brief: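 EC50 from a 4-parameter fit of DMSO-normalized HTRF (665/620 nm) IL-6 signal, duplicates. Compound was added to fresh human PBMCs in 1% FBS RPMI for 2 h (top 10 μM, 3-fold, 0.25% DMSO) before 22 h stimulation with LPS at 50 ng/mL, 37 °C.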

[4] = tested on: Tau phosphorylation at Ser396 (pSer396), SH-SY5Y cells; assay: Tau phosphorylation at Ser396 (pSer396) in SH-SY5Y cells, ELISA/western blot; assay type: cell-based, human; conditions: SH-SY5Y cells, overnight (16-18 h), read-out: pSer396 Tau EC50;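 also: cell lysates probed for reduced Tau pSer396 via ELISA (colorimetric) or western blot (chemiluminescence), both with one shared pSer396 antibody, EC50 for lowering phosphorylation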

Structure (SMILES)	EC50 (GSK3β kinase)	EC50 (DYRK1A kinase)	EC50 ([2]; Homo sapiens)	EC50 ([3]; Homo sapiens, 96 h)	EC50 (IL-6; Homo sapiens, PBMC)	EC50 ([4]; Homo sapiens)	EC50 [1]	EC50 [2]	EC50 [3]	percent inhibition of IL-6 at 10 µM (IL-6)	EC50 (IL-6)	EC50 [4]	EC50 ([1]; Homo sapiens, Fibroblast, 96 h)	inhibition at 10 µM ([2]; Homo sapiens)	inhibition at 10 µM ([3]; Homo sapiens)	inhibition at 10 µM (IL-6; Homo sapiens, PBMC)	inhibition at 10 µM ([1]; Homo sapiens, Fibroblast)
Cc1ncc(-c2ccc3cnc(NC(=O)C4CCN(CC(C)(F)F)CC4)cc3c2)o1 [Compound 20, 1-(2,2-Difluoropropyl)-N-(6-(2-methyloxazol-5-yl)isoquinolin-3-yl) piperidine-4-carboxamide]	41 nM	5 nM	–	–	–	–	480 nM	2640 nM	3070 nM	(13.4%)	> 10000 nM	524 nM	–	–	–	–	–
Cc1nnc(-c2ccc3cnc(NC(=O)C4(F)CCNCC4)cc3c2)s1 [Compound 25, 4-Fluoro-N-(6-(5-methyl-1,3,4-thiadiazol-2-yl)isoquinolin-3-yl)piperidine-4-carboxamide]	313 nM	14 nM	> 10000 nM	> 10000 nM	> 10000 nM	430 nM	–	–	–	–	–	–	3870 nM	34.3%	40.3%	8%	–
Cc1nnc(-c2ccc3cnc(NC(=O)C4(F)CCN(C)CC4)cc3c2)s1 [Compound 26, 4-Fluoro-1-methyl-N-(6-(5-methyl-1,3,4-thiadiazol-2-yl)isoquinolin-3-yl) piperidine-4-carboxamide]	524 nM	38 nM	6950 nM	8530 nM	> 10000 nM	167 nM	–	–	–	–	–	–	> 10000 nM	–	–	5.6%	48.4%
Cc1nnc(-c2ccc3cnc(NC(=O)N(C)C4CCN(C)CC4)cc3c2)s1 [Compound 29, 1-Methyl-3-(6-(5-methyl-1,3,4-thiadiazol-2-yl)isoquinolin-3-yl)-1-(1-methylpiperidin-4-yl)urea]	337 nM	18 nM	> 10000 nM	> 10000 nM	> 10000 nM	3400 nM	–	–	–	–	–	–	> 10000 nM	45.6%	28.2%	6%	3.2%
Cc1nnc(-c2ccc3cnc(NC(=O)N4CCC(N(C)C)CC4)cc3c2)s1 [Compound 31, 4-(Dimethylamino)-N-(6-(5-methyl-1,3,4-thiadiazol-2-yl)isoquinolin-3-yl) piperidine-1-carboxamide]	117 nM	24 nM	2060 nM	3800 nM	> 10000 nM	386 nM	–	–	–	–	–	–	3710 nM	–	–	19.8%	–
Cc1nnc(-c2ccc3cnc(NC(=O)N4CCC(N(C)CC(F)F)CC4)cc3c2)s1 [Compound 32, 4-((2,2-Difluoroethyl)(methyl)amino)-N-(6-(5-methyl-1,3,4-thiadiazol-2-yl)isoquinolin-3-yl)piperidine-1-carboxamide]	210 nM	17 nM	> 10000 nM	> 10000 nM	> 10000 nM	891 nM	–	–	–	–	–	–	771 nM	30.5%	8.3%	10.1%	–
Cc1ncc(-c2ccc3cnc(NC(=O)[C@H]4CC[C@H](N(C)C5COC5)CC4)cc3c2)o1 [Compound 37, trans-4-(methyl(oxetan-3-yl)amino)-N-(6-(2-methyloxazol-5-yl)isoquinolin-3-yl)cyclohexane-1-carboxamide]	138 nM	7 nM	4040 nM	6890 nM	1340 nM	497 nM	–	–	–	–	–	–	244 nM	–	–	–	–

More lines, in order of falling EC50 (GSK3β kinase), values ahead:

EC50 (GSK3β kinase)	EC50 (DYRK1A kinase)	EC50 ([2]; Homo sapiens)	EC50 ([3]; Homo sapiens, 96 h)	EC50 (IL-6; Homo sapiens, PBMC)	EC50 ([4]; Homo sapiens)	Structure (SMILES)	EC50 [1]	EC50 [2]	EC50 [3]	percent inhibition of IL-6 at 10 µM (IL-6)	EC50 (IL-6)	EC50 [4]	EC50 ([1]; Homo sapiens, Fibroblast, 96 h)	inhibition at 10 µM ([2]; Homo sapiens)	inhibition at 10 µM ([3]; Homo sapiens)	inhibition at 10 µM (IL-6; Homo sapiens, PBMC)	inhibition at 10 µM ([1]; Homo sapiens, Fibroblast)
99 nM	27 nM	3310 nM	6840 nM	> 10000 nM	453 nM	CNC1CCN(C(=O)Nc2cc3cc(-c4nnc(C)s4)ccc3cn2)CC1 [Compound 30, N-(6-(5-Methyl-1,3,4-thiadiazol-2-yl)isoquinolin-3-yl)-4-(methylamino) piperidine-1-carboxamide]	–	–	–	–	–	–	4110 nM	–	–	9.3%	–
84 nM	26 nM	3340 nM	4550 nM	> 10000 nM	543 nM	Cc1nnc(-c2ccc3cnc(NC(=O)N4CC[C@H](NC(C)C)[C@@H](F)C4)cc3c2)s1 [Compound 35, (3S,4S)-3-Fluoro-4-(isopropylamino)-N-(6-(5-methyl-1,3,4-thiadiazol-2-yl)isoquinolin-3-yl)piperidine-1-carboxamide]	–	–	–	–	–	–	1020 nM	–	–	9.6%	–
79 nM	12 nM	3740 nM	5700 nM	> 10000 nM	843 nM	Cc1nnc(-c2ccc3cnc(NC(=O)N4CCOCC4)cc3c2)s1 [Compound 36, N-(6-(5-Methyl-1,3,4-thiadiazol-2-yl)isoquinolin-3-yl)morpholine-4-carboxamide]	–	–	–	–	–	–	5200 nM	–	–	4%	–
46 nM	15 nM	3360 nM	3760 nM	> 10000 nM	456 nM	Cc1nnc(-c2ccc3cnc(NC(=O)N4CC[C@H](N(C)C)[C@@H](F)C4)cc3c2)s1 [Compound 34, (3S,4S)-4-(dimethylamino)-3-fluoro-N-(6-(5-methyl-1,3,4-thiadiazol-2-yl)isoquinolin-3-yl)piperidine-1-carboxamide]	–	–	–	–	–	–	> 10000 nM	–	–	7%	48.5%
35 nM	6 nM	657 nM	1060 nM	9370 nM	566 nM	Cc1nnc(-c2ccc3cnc(NC(=O)[C@H]4CC[C@H](N)CC4)cc3c2)s1 [Compound 21, trans-4-Amino-N-(6-(5-methyl-1,3,4-thiadiazol-2-yl)isoquinolin-3-yl) cyclohexane-1-carboxamide]	–	–	–	–	–	–	340 nM	–	–	–	–
30 nM	7 nM	1190 nM	3640 nM	8810 nM	127 nM	Cc1nnc(-c2ccc3cnc(NC(=O)C4CCNCC4)cc3c2)s1 [Compound 24, N-(6-(5-Methyl-1,3,4-thiadiazol-2-yl)isoquinolin-3-yl)piperidine-4-carboxamide]	–	–	–	–	–	–	573 nM	–	–	–	–
23 nM	9 nM	3500 nM	4630 nM	9320 nM	321 nM	Cc1nnc(-c2ccc3cnc(NC(=O)N4CC[C@H](N)[C@@H](F)C4)cc3c2)s1 [Compound 33, (3S,4S)-4-amino-3-fluoro-N-(6-(5-methyl-1,3,4-thiadiazol-2-yl)isoquinolin-3-yl)piperidine-1-carboxamide]	–	–	–	–	–	–	> 10000 nM	–	–	–	49.9%
17 nM	4 nM	725 nM	2120 nM	9370 nM	161 nM	Cc1nnc(-c2ccc3cnc(NC(=O)[C@H]4CC[C@H](N5CCOCC5)CC4)cc3c2)s1 [Compound 23, trans-N-(6-(5-Methyl-1,3,4-thiadiazol-2-yl)isoquinolin-3-yl)-4-morpholinocyclohexane-1-carboxamide]	–	–	–	–	–	–	489 nM	–	–	–	–
11 nM	6 nM	927 nM	2090 nM	> 10000 nM	104 nM	Cc1nnc(-c2ccc3cnc(NC(=O)C4CCN(CC(F)F)CC4)cc3c2)s1 [Compound 27, 1-(2,2-Difluoroethyl)-N-(6-(5-methyl-1,3,4-thiadiazol-2-yl)isoquinolin-3-yl)piperidine-4-carboxamide]	–	–	–	–	–	–	235 nM	–	–	2.8%	–
8 nM	4 nM	1110 nM	> 10000 nM	> 10000 nM	89 nM	Cc1nnc(-c2ccc3cnc(NC(=O)C4CCN(CC(C)(F)F)CC4)cc3c2)s1 [Compound 28, 1-(2,2-Difluoropropyl)-N-(6-(5-methyl-1,3,4-thiadiazol-2-yl)isoquinolin-3-yl)piperidine-4-carboxamide]	–	–	–	–	–	–	448 nM	–	37.8%	4.3%	–
